# From ChEMBL document CHEMBL1909046, “DrugMatrix in vitro pharmacology data”
# Assays:
# [1] = biological target: Beta-3 adrenergic receptor (Homo sapiens, UniProt P13945); assay: DRUGMATRIX: Adrenergic beta3 radioligand binding (ligand: [125I] Cyanopindolol); type: cell membranes, Membrane; settings: hek293; Not Active = under 50% inhibition at 10 µM
# [2] = DRUGMATRIX: Calcium Channel Type L, Dihydropyridine radioligand binding (ligand: [3H] Nitrendipine); type: cell membranes, Rattus norvegicus, Wistar, Cerebral cortex, Membrane; settings: Not Active = under 50% inhibition at 10 µM
# [3] = biological target: 5-hydroxytryptamine receptor 2B (Homo sapiens, UniProt P41595); type: cell membranes, CHO-K1, Membrane; settings: cho-k1; further: in other assays of this panel Not Active means under 50% inhibition at 10 µM
# [4] = biological target: 5-hydroxytryptamine receptor 4 (Cavia porcellus, UniProt O70528); type: cell membranes, Dunkin-Hartley, Striatum, Membrane; further: in other assays of this panel Not Active means under 50% inhibition at 10 µM
# [5] = biological target: C-C chemokine receptor type 5 (Homo sapiens, UniProt P51681); type: cell membranes, HEK293, Membrane; further: in other assays of this panel Not Active means under 50% inhibition at 10 µM
# [6] = DRUGMATRIX: Leukotriene, BLT (LTB4) radioligand binding (ligand: [3H]LTB4); type: cell membranes, Membrane; settings: u-937; Not Active = under 50% inhibition at 10 µM
# Leukotriene C4 synthase = biological target: T1, Leukotriene C4 synthase (Cavia porcellus, UniProt A6XA80); type: tissue-based, Lung;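 further: enzyme inhibition assay of leukotriene C4 synthase, using LTA4 as the substrate; in other assays of this panel Not Active means under 50% inhibition at 10 µM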
# T1 sequence (A6XA80 whole entry): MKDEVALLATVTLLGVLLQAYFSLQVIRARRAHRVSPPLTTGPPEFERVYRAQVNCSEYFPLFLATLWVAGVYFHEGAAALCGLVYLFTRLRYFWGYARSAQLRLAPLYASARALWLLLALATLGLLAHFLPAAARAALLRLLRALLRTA
# [7] = biological target: T2, Polyunsaturated fatty acid lipoxygenase ALOX15 (Oryctolagus cuniculus, UniProt P12530); assay: biochemical; type: tissue-based, Reticulocytes
# T2 sequence (P12530 whole entry): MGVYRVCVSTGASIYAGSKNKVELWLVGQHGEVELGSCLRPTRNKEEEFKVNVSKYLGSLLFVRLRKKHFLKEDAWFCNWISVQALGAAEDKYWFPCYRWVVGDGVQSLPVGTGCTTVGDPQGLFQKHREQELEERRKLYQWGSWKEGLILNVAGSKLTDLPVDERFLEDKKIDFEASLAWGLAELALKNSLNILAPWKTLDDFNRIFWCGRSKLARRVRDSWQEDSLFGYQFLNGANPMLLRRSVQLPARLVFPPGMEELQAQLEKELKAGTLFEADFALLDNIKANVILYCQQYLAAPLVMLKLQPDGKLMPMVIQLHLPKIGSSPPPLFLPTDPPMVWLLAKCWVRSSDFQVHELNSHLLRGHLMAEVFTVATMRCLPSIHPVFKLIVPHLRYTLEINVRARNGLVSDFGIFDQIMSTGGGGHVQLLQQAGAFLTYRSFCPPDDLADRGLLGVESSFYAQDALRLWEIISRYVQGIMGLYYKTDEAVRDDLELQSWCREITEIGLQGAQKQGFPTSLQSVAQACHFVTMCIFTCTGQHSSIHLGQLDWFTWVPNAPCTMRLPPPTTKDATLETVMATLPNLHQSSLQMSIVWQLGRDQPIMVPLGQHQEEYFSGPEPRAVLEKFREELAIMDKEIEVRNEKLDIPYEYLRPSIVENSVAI
# Melanocortin receptor 5 = Melanocortin receptor 5 (Homo sapiens, UniProt P33032); type: cell membranes, Membrane; settings: hek293; further: in other assays of this panel Not Active means under 50% inhibition at 10 µM
# [8] = biological target: T3, Muscarinic acetylcholine receptor M2 (Homo sapiens, UniProt P08172); type: cell membranes, CHO-K1, Membrane; settings: cho-k1; further: in other assays of this panel Not Active means under 50% inhibition at 10 µM
# T3 sequence (P08172 whole entry): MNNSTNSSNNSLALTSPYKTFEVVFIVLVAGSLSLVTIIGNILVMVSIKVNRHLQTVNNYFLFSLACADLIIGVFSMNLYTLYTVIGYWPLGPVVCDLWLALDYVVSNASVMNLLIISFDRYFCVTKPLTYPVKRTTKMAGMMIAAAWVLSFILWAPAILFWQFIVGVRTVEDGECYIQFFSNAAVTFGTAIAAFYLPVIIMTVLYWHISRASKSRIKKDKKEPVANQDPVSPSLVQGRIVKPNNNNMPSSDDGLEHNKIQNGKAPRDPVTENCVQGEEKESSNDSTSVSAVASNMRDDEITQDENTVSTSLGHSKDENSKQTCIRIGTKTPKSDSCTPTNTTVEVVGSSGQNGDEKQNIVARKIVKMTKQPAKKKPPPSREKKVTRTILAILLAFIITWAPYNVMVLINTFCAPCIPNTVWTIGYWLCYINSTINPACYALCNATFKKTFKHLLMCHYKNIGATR
# [9] = biological target: Matrix metalloproteinase-9 (Homo sapiens, UniProt P14780); assay: biochemical; type: cell-based
# Cytochrome P450 2C9 = Cytochrome P450 2C9 (Homo sapiens, UniProt P11712); settings: bti-tn-5b1-4; further: in other assays of this panel Not Active means under 50% inhibition at 10 µM
# Chain of Cytochrome P450 2C9 (P11712 whole entry): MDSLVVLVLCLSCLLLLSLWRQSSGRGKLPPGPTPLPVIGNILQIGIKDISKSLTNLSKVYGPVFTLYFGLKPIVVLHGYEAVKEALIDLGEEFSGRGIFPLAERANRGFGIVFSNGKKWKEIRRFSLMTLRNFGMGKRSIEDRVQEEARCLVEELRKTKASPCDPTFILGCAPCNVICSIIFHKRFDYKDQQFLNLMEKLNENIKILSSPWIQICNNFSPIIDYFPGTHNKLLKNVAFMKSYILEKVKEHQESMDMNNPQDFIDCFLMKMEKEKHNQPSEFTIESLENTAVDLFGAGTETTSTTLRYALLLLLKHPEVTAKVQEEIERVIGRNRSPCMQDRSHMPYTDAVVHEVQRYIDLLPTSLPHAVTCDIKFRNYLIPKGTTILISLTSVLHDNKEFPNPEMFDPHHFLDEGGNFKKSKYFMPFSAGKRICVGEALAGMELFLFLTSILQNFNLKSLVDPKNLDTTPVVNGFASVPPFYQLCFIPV
# Chain of Melanocortin receptor 5 (P33032 whole entry): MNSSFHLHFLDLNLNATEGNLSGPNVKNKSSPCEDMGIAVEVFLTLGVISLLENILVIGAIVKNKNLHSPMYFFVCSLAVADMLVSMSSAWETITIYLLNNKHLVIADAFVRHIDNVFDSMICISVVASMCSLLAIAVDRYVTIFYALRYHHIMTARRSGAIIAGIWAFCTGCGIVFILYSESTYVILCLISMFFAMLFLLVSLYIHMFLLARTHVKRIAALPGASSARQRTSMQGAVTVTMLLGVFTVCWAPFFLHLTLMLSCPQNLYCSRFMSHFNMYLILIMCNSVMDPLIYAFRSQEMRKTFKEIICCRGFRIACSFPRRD
# Chain of 5-hydroxytryptamine receptor 4 (O70528 whole entry): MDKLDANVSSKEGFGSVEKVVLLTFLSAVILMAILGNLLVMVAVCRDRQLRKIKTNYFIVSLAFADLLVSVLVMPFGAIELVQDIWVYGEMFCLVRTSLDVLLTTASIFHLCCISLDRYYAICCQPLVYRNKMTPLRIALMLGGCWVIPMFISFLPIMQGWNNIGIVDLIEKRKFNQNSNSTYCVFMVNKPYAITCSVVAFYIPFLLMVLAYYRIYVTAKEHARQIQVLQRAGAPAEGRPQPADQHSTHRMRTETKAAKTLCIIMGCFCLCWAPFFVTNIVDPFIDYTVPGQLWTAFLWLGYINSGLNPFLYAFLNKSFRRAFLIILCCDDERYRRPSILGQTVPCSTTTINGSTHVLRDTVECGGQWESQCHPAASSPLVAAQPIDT
# Chain of Matrix metalloproteinase-9 (P14780 whole entry): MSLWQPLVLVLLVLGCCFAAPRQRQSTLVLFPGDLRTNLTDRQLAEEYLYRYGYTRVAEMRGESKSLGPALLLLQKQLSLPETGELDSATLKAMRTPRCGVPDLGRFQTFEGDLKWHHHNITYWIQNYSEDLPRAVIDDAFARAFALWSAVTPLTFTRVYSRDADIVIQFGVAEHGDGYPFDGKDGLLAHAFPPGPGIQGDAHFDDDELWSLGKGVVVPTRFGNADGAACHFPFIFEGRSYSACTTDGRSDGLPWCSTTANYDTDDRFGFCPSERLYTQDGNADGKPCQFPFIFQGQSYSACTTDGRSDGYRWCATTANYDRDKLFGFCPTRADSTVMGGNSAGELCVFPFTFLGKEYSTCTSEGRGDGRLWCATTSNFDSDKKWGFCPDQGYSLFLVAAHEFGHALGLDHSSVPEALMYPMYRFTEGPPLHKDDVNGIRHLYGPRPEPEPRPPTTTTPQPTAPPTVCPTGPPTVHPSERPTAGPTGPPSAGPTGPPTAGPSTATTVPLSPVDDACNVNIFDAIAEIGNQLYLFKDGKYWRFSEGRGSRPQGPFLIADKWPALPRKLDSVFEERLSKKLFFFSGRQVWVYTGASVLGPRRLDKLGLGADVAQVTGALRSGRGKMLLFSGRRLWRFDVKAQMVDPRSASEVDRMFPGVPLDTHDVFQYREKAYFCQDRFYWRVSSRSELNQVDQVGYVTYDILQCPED
# Chain of C-C chemokine receptor type 5 (P51681 whole entry): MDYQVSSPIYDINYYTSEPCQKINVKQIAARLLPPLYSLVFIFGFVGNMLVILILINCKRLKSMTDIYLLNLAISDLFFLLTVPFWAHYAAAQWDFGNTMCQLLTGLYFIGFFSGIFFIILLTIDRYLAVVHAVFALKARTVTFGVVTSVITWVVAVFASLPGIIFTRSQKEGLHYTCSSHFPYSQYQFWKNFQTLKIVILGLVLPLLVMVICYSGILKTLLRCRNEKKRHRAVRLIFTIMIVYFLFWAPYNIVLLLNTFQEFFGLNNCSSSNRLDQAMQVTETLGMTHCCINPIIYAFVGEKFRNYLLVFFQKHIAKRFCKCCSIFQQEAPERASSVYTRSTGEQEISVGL
# Chain of 5-hydroxytryptamine receptor 2B (P41595 whole entry): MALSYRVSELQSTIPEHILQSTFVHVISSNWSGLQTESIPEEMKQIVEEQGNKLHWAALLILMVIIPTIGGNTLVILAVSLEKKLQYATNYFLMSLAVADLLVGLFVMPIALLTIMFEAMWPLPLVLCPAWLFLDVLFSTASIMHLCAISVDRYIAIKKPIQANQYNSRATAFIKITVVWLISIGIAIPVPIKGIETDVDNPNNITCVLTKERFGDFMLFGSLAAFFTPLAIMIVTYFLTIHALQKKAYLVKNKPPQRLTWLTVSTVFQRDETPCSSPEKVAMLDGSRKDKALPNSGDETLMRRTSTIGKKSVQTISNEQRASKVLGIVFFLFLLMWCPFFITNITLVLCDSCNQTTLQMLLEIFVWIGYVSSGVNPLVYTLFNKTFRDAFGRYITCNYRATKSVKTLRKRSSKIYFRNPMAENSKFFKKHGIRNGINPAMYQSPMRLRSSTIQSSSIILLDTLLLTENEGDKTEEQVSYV
# Chain of Beta-3 adrenergic receptor (P13945 whole entry): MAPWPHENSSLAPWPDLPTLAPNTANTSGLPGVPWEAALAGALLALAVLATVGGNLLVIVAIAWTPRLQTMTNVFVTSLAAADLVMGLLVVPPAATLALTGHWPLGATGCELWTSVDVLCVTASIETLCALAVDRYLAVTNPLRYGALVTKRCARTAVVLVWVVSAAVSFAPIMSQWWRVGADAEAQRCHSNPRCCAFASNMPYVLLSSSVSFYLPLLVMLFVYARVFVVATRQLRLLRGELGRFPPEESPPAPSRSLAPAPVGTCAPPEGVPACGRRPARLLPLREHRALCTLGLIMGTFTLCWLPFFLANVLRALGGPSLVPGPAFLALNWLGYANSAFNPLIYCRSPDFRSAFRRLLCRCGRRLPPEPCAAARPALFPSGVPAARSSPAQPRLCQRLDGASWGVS
Structure (SMILES),IC50 [1],IC50 [2],Ki [2],IC50 [3],IC50 [4],IC50 ([5]; hek293),IC50 [6],Ki [6],IC50 (Leukotriene C4 synthase),IC50 ([7]; reticulocytes),IC50 (Melanocortin receptor 5),IC50 [8],IC50 [9],IC50 (Cytochrome P450 2C9),Ki (Cytochrome P450 2C9),IC50 ([7]; read-out: IC50),IC50 ([2]; read-out: IC50),Ki ([2]; read-out: Ki),IC50 ([5]; read-out: IC50),Ki ([5]; read-out: Ki)
CC1=C(CC(=O)O)c2cc(F)ccc2/C1=C\c1ccc([S+](C)[O-])cc1 (stereo not given),Not Active,Not Active,Not Active,Not Active,Not Active,Not Active,Not Active,Not Active,Not Active,Not Active,Not Active,Not Active,Not Active,Not Active,Not Active,–,–,–,–,–
N[C@H](CSC(=S)NCc1ccccc1)C(=O)O,Not Active,Not Active,Not Active,Not Active,Not Active,Not Active,Not Active,Not Active,Not Active,Not Active,Not Active,Not Active,Not Active,Not Active,Not Active,–,–,–,–,–
CC(=O)N[C@@H]1[C@H](Oc2c3cc4cc2Oc2ccc(cc2Cl)[C@@H](O[C@@H]2O[C@@H](CO)[C@@H](O)[C@H](O)[C@@H]2NC(C)=O)[C@@H]2NC(=O)[C@H](NC(=O)[C@@H]4NC(=O)[C@H]4NC(=O)[C@@H](Cc5ccc(c(Cl)c5)O3)NC(=O)[C@H](N)c3ccc(O)c(c3)Oc3cc(O)cc4c3)c3ccc(O)c(c3)-c3c(O[C@H]4O[C@H](CO)[C@@H](O)[C@@H](O)[C@@H]4O)cc(O)cc3[C@@H](C(=O)O)NC2=O)O[C@@H](CO)[C@@H](O)[C@@H]1O,Not Active,Not Active,Not Active,Not Active,Not Active,Not Active,Not Active,Not Active,Not Active,Not Active,Not Active,Not Active,Not Active,Not Active,Not Active,–,–,–,–,–
Clc1ccc2c(c1)C(N1CCNCC1)=Nc1ccccc1O2 [AMOXAPINE],Not Active,–,–,–,Not Active,Not Active,–,–,Not Active,Not Active,Not Active,–,Not Active,Not Active,Not Active,–,–,–,–,–
COc1cc2c(c(OC)c1OC)-c1ccc(OC)c(=O)cc1[C@@H](NC(C)=O)CC2 [COLCHICINE],Not Active,–,–,Not Active,Not Active,Not Active,–,–,Not Active,Not Active,Not Active,Not Active,Not Active,Not Active,Not Active,–,–,–,–,–
CN1CCC(=C2c3ccccc3C=Cc3ccccc32)CC1 [CYPROHEPTADINE],Not Active,–,–,–,Not Active,Not Active,–,–,Not Active,Not Active,Not Active,–,Not Active,Not Active,Not Active,–,–,–,–,–
CC/C(=C(/CC)c1ccc(O)cc1)c1ccc(O)cc1 [DIETHYLSTILBESTROL],Not Active,–,–,–,Not Active,Not Active,–,–,Not Active,–,Not Active,Not Active,Not Active,Not Active,Not Active,2960 nM,–,–,–,–
CC(=O)N1CCN(c2ccc(OCC3COC(Cn4ccnc4)(c4ccc(Cl)cc4Cl)O3)cc2)CC1 (stereo not given) [KETOCONAZOLE],Not Active,Not Active,Not Active,Not Active,Not Active,Not Active,Not Active,Not Active,Not Active,–,Not Active,–,Not Active,Not Active,Not Active,5420 nM,–,–,–,–
C=CCN1CC[C@]23c4c5ccc(O)c4O[C@H]2C(=O)CC[C@@]3(O)[C@H]1C5 [NALOXONE],Not Active,–,–,Not Active,Not Active,Not Active,–,–,Not Active,Not Active,Not Active,Not Active,Not Active,–,–,–,–,–,–,–
COCCOC(=O)C1=C(C)NC(C)=C(C(=O)OC(C)C)C1c1cccc([N+](=O)[O-])c1 (stereo not given) [NIMODIPINE],Not Active,–,–,Not Active,Not Active,Not Active,Not Active,Not Active,Not Active,Not Active,Not Active,Not Active,Not Active,–,–,–,0.242 nM,0.156 nM,–,–
CC(C)NCC(O)COc1cccc2ccccc12 (stereo not given) [PROPRANOLOL],–,–,–,–,Not Active,Not Active,–,–,Not Active,Not Active,Not Active,Not Active,Not Active,Not Active,Not Active,–,–,–,–,–
COCCCOc1ccnc(C[S+]([O-])c2nc3ccccc3[nH]2)c1C (stereo not given) [RABEPRAZOLE],Not Active,Not Active,Not Active,Not Active,Not Active,Not Active,Not Active,Not Active,Not Active,Not Active,Not Active,Not Active,Not Active,Not Active,Not Active,–,–,–,–,–
O=C(c1ccc(OCCN2CCCCC2)cc1)c1c(-c2ccc(O)cc2)sc2cc(O)ccc12 [RALOXIFENE],Not Active,–,–,–,Not Active,Not Active,Not Active,Not Active,Not Active,Not Active,Not Active,Not Active,Not Active,–,–,–,388 nM,249 nM,–,–
CNC(=C[N+](=O)[O-])NCCSCc1ccc(CN(C)C)o1 [RANITIDINE],Not Active,Not Active,Not Active,Not Active,Not Active,Not Active,Not Active,Not Active,Not Active,Not Active,Not Active,Not Active,Not Active,Not Active,Not Active,–,–,–,–,–
CC(C)c1nc(CN(C)C(=O)N[C@H](C(=O)N[C@@H](Cc2ccccc2)C[C@H](O)[C@H](Cc2ccccc2)NC(=O)OCc2cncs2)C(C)C)cs1 [RITONAVIR],Not Active,Not Active,Not Active,Not Active,Not Active,Not Active,Not Active,Not Active,Not Active,Not Active,Not Active,Not Active,Not Active,–,–,–,–,–,–,–
COc1cc(NS(=O)(=O)c2ccc(N)cc2)nc(OC)n1 [SULFADIMETHOXINE],Not Active,Not Active,Not Active,Not Active,Not Active,Not Active,Not Active,Not Active,Not Active,Not Active,Not Active,Not Active,Not Active,–,–,–,–,–,–,–
CC(C)(C)c1ccc(C(O)CCCN2CCC(C(O)(c3ccccc3)c3ccccc3)CC2)cc1 (stereo not given) [TERFENADINE],Not Active,–,–,–,Not Active,–,Not Active,Not Active,Not Active,Not Active,Not Active,Not Active,Not Active,–,–,–,779 nM,501 nM,1100 nM,852 nM
